This is an account of results in paper PMC3352337, “Synergistic Antimycobacterial Actions of Knowltonia vesicatoria (L.f) Sims” (Evidence-based Complementary and Alternative Medicine : eCAM, 2012).

One data set deals with U937 cells. Briefly: XTT cytotoxicity assay on PMA-differentiated U937 cells. The settings on record: for IC50: Homo sapiens, U-937, 72 h. For orientation: Tetrazolium assays rely on reduction of a dye to a coloured formazan, in cell work by metabolically active cells.
Data set [1] concerns Mycobacterium smegmatis (MC^2 155). The experiment in a line: Microdilution (microplate INT) susceptibility assay on M. smegmatis. The format is cell-based. The settings on record: Mycolicibacterium smegmatis. How it is done:
Cryopreserved or freshly scraped colonies were suspended in fresh Middlebrook 7H9 broth (Sigma-Aldrich Chemical Co., South Africa) and incubated for 24 h at 37°C. The overnight liquid culture was then transferred to a sterile test tube containing 20–25 glass beads (with a 2.00 mm diameter) and homogenised by using a vortex mixer (Heidolph, Germany) for 5–10 min. The broth culture was then left still for 5–10 min to let larger clumps of mycobacteria settle. The supernatant was carefully decanted to a sterile flask and adjusted with Middlebrook 7H9 broth base to an optical density of 0.2 (log phase) at 550 nm (Beckman DU-720 UV spectrophotometer), yielding 1.26 × 10^8 colony-forming units per millilitre (CFU/mL). The microdilution test was performed in 96-well microtiter plates as described earlier.
The plant extract and fractions were dissolved in 10% dimethyl sulfoxide (DMSO) to obtain a stock concentration of 10 mg/mL. Ciprofloxacin (Sigma-Aldrich Chemical Co., South Africa) at final concentrations ranging from 2.00 × 10^−3 to 7.80 × 10^−5 mg/mL served as the positive drug control. Serial twofold dilutions of each test sample were made with Middlebrook 7H9 broth base (Sigma-Aldrich Chemical Co., South Africa) to yield volumes of […] with final concentrations ranging from 2.50 to 0.08 mg/mL. […]
(In general: Broth dilution looks for growth in wells or tubes with falling amounts of substance.)

The test system of data set [2] is M. tuberculosis H37Rv (ATCC 27294). Briefly: microbe, parasite or virus in culture. Type of data set: cell-based, Mycobacterium tuberculosis. The settings on record: for ΔGI4-3 ± SD: BACTEC growth index change, V2 10^-2 inoculum control 22.0 ± 2.94; for MIC: Mycobacterium tuberculosis, read-out: MIC (minimum inhibitory concentration).
The subject of data set [3] is M. tuberculosis. Briefly: Microplate assay MIC against M. tuberculosis (compound 2). Type of data set: cell-based, Mycobacterium tuberculosis. The settings on record: BACTEC MIC not determined.
The nature of data set [4]: XTT cytotoxicity assay on PMA-differentiated U937 cells. The settings on record: human, PMA-differentiated U937 cells (macrophage-like), pH 7.2.
Data set [5] deals with M. tuberculosis. The settings on record: cited from earlier work.
[6] abbreviates: read-out: IC50 (fifty percent inhibitory concentration).

Values after ≈ are worked out from the molar mass of the structure shown. Like-named read-outs stand apart in the source and are kept apart here. Marks after values point to notes of the source that are not given here. *1 amine or outer side, *2 acyl side, *3 side chain or, on linkers, in order; H or OH if unused. Where a SMILES comes first, the peptide text is derived from it. Bridges are numbered along the chain shown (N, C = ends). Roman numbers before positions name the chains, in order. [ ]: non-standard residue; d: D form. Actinocin(9to1) = Cc1c2oc3c(C)ccc(C(=O)[*:1])c3nc-2c(C(=O)[*:2])c(N)c1=O; NMeV = CN[C@H](C(=O)O)C(C)C; Sar = CNCC(=O)O

Usually viability stands for the share of living cells, or the viability signal relative to a control.

As to `Cc1c2oc3c(C)ccc(C(=O)N[C@@H]4C(=O)N[C@H](C(C)C)C(=O)N5CCC[C@H]5C(=O)N(C)CC(=O)N(C)[C@@H](C(C)C)C(=O)O[C@@H]4C)c3nc-2c(C(=O)N[C@@H]2C(=O)N[C@H](C(C)C)C(=O)N3CCC[C@H]3C(=O)N(C)CC(=O)N(C)[C@@H](C(C)C)C(=O)O[C@@H]2C)c(N)c1=O` [Actinomycin D] (I: T[dV]P[Sar][NMeV] / II: T[dV]P[Sar][NMeV]; ester I:1-I:C, II:1-II:C; linker I:N-II:N via Actinocin(9to1)), the IC50 with U937 cells (read-out: IC50 (fifty percent inhibitory concentration), U937 macrophages, 72 h, XTT) was 0.0038 µg/mL (≈ 0.00303 µM). For the same compound, the “IC50 (fifty percent inhibitory concentration)” value in the data set on U937 cells (U937 macrophages, 72 h, XTT) is 3.820 ± 0.258 ×10^−3 μg/mL.
As for `O=C(O)c1cn(C2CC2)c2cc(N3CCNCC3)c(F)cc2c1=O` [Ciprofloxacin], the MIC in data set [1] (MC^2155, 24 h, INT microplate, read-out: MIC (minimum inhibitory concentration)) turned out to be 1.25 µg/mL (≈ 3.77 µM). Further, in data set [1] (MC^2155, 48 h subculture, INT, read-out: MBC (minimum bactericidal concentration)), the MBC turned out to be 1.25 µg/mL (≈ 3.77 µM).
As to `CCC(=CC[C@@H](C)[C@H]1CC[C@H]2[C@@H]3CC=C4CC(O)CC[C@]4(C)[C@H]3CC[C@]12C)C(C)C` (some centres unmarked) [Compound (1), Stigmasta-5,23-dien-3-ol], in the data set with U937 cells (setting [6]), the IC50 stood at 16.41 ± 0.135 µg/mL (≈ 39.8 µM). The “ΔGI4-3 ± SD” value in data set [2] is recorded as −9.00 ± 1.41. For the same compound, the MIC in data set [2] (BACTEC radiometric) was determined as 50 µg/mL (≈ 121 µM).
As to `O=C1C=CC(CO)O1` (centres unmarked) [Compound (2), 5-(hydroxymethyl)furan-2(5H)-one], in the data set on U937 cells (setting [6]), the IC50 was determined as 44.7 ± 0.5 µg/mL (≈ 392 µM). For the same compound, the “MIC determined via microplate assay” value against M. tuberculosis [3] is recorded as 100.0^k μg/mL. For the same compound, the MIC in the data set on M. tuberculosis [3] (Mycobacterium tuberculosis, read-out: MIC determined via microplate assay) is 200 µg/mL (≈ 1750 µM).
For `NNC(=O)c1ccncc1` [INH, isoniazid], the IC50 in the data set on U937 cells (setting [6]) is greater than 200 µg/mL. Besides, the viability at 72 h, 200 μg/mL in data set [4] is 80%. Moreover, the “ΔGI4-3 ± SD” value in data set [2] was −2.50 ± 2.12. For the same compound, in data set [2] (BACTEC radiometric), the “MIC (minimum inhibitory concentration)” value worked out at 0.20 µg/mL (≈ 1.46 µM) and the MIC turned out to be 0.2 µg/mL (≈ 1.46 µM).
As for `C=CC(O)(CC[C@@H](C)[C@H]1CC[C@H]2[C@@H]3CC=C4C[C@@H](O)CC[C@]4(C)[C@H]3CC[C@]12C)C(C)C` (some centres unmarked) [saringosterol], the MIC in the data set on M. tuberculosis [5] (M. tb ref 34) is 0.250 µg/mL (≈ 0.583 µM).
For `CC[C@H](/C=C/[C@@H](C)[C@H]1CC[C@H]2[C@@H]3CC=C4C[C@@H](O)CC[C@]4(C)[C@H]3CC[C@]12C)C(C)C` [stigmasterol], the MIC in the data set with M. tuberculosis [5] (phytosterols from Morinda citrifolia against M. tb ref 33 (Saludes et al.)) was 32.00 µg/mL (≈ 77.5 µM).
